Test results: patent US20080090847A1, “HETEROCYCLIC COMPOUNDS AND USES THEREOF AS D-ALANYL-D-ALANINE LIGASE INHIBITORS” (PLIVA D.D., priority 2001, published 2008)

Target: E. coli ligase (D-Ala-D-Ala ligase) (Escherichia coli, UniProt P07862)
Experiment: D-Ala-D-Ala ligase Ki determination (PK/LDH coupled assay), E. coli ligase
Type: biochemical
Details: Table 1; read-out: Ki (E. coli ligase)/μM
Source text: Inhibition of D-Ala-D-Ala ligase can be assayed for using the pyruvate kinase/lactate dehydrogenase (PK/LDH) assay described in Example 2, and as described in the literature (e.g., in Sarthy et al., Anal. Biochem., 254:288-290, 1997). In the bacterial cell wall synthesis process, the ligase catalyzes the conversion of adenosine triphosphate (ATP) to adenosine diphosphate (ADP) concurrent with the ligation of two D-alanine residues to form D-alanyl-D-alanine. PK then regenerates ATP from the ADP thus created simultaneously with the conversion of phosphopyruvate to pyruvate. LDH catalyzes the reduction of pyruvate to lactate by converting NADH to NAD^+. By monitoring the production rate of NAD^+ (e.g., using UV/Vis spectroscopy), D-Ala-D-Ala ligase activity can be ascertained.
The protein sequence for the enzyme D-ala-D-ala ligase has been determined in a variety of different bacterial species using standard techniques in biochemistry (see Table 5). The protein sequence from any species can be overexpressed in an appropriate host organism such as E. coli using standard molecular biology techniques. The ligase enzyme can be harvested, purified, and used in the above described assay for the determination of inhibitory activity.
The synthetic analogs of Example 1 were dissolved in dimethylsulfoxide (DMSO) at a concentration of 100 mM on the day of screening, using a vortex mixer and sonication if necessary for dissolution. The solutions were kept at room temperature until screening was completed.
A 10 mM NADH (Sigma) stock solution was prepared freshly on the day of screening by dissolving 32 μmol NADH in 3.2 ml double-distilled water. The NADH solution was kept on ice. Stock solutions containing 50 mM phosphoenolpyruvate (PEP; Sigma), 500 μM HERMES, 30 mM adenosine triphosphate (ATP; Sigma), 200 mM D-alanine (Sigma), and 4× core buffer (i.e., 400 mM Hepes, 40 mM magnesium chloride, and 40 mM potassium chloride), were also stored on ice. A stock solution of pyruvate kinase/lactate dehydrogenase (PK/LDH) was also obtained from Sigma.
Table of Final concentrations are dependent on the type of screening:
For each set of test compounds, two 96-well plates were used: an inhibitor plate and an enzyme plate. The test compounds correspond to rows A-G of the plates. Adenosine (Sigma) dissolved in DMSO, used as a control, corresponds to row H of each plate.
The enzyme solution was allowed to equilibrate to 25° C.
Dilutions were prepared in the inhibitor plate as follows: 50 μl DMSO was added to each well of columns 1-11, rows A-G, of the inhibitor plate. 50 μl DMSO were added to each well of columns 1-11, row H. 100 μl of the 100 mM test solutions were added to column 12, rows A-G (i.e., the first compound in row A, the second compound in row B, and so on). 100 μl of a 100 mM Adenosine solution was added to column 12, row H.
50 μl of the test solution was transferred from column 12 in each row to column 11 of the a same row, mixing the solution with the DMSO. 50 μl of solution was then transferred from column 11 in each row to column 10 in the same row, 50 μl from column 10 was transferred to column 9, and so on, down to column 2. No solution was transferred to column 1. Multichannel pipettors were used in making the serial dilution.
120 μl of the enzyme solution was added to each well of the enzyme plate.
The substrate solutions were brought to 25° C.
The analogs and enzymes were then incubated at 25° C. Since the reactions were initiated in columns, the analog addition is also in columns. At t=0 minutes, 5 μl analog was transferred from each well of columns 1-4 of the inhibitor plate to the corresponding well of the enzyme plate. At t=4 minutes, 5 μl analog was transferred from each well of columns 5-8 of the inhibitor plate to the corresponding well of the enzyme plate. At t=8 minutes, 5 μl analog was transferred from each well of columns 9-12 of the inhibitor plate to the corresponding well of the enzyme plate. The inhibitor plate was then frozen. […]

SMILES | Ki [µM]
Nc1nc(N)c2cc(NCc3ccc(C(=O)NCc4ccccn4)cc3)ccc2n1 | 73
Nc1nc(N)c2ccc(-c3ccccc3)nc2n1 | 31
CC(C)c1nc2nc(N)nc(N)c2nc1C(C)C | 37
Nc1nc(N)c2nc(CNc3cc(Cl)cc(Cl)c3)cnc2n1 | 1
Nc1nc(N)c2ncc(CNC(CO)CSCc3ccccc3)nc2n1 (stereo not shown) | 55
Cc1ccc(C(C)C)cc1OCc1ncc2c(N)nc(N)nc2n1 | 20
Nc1nc(N)c2cnc(CSc3ccc(Cl)cc3)nc2n1 | 12
Nc1nc(N)c2cnc(NCc3ccc(Cl)c(Cl)c3)nc2n1 | 20
CC(Nc1ncc2c(N)nc(N)nc2n1)C(=O)Nc1ccc2ccccc2c1 (stereo not shown) | 29
Nc1nc(N)c2cnc(/C=C/c3ccccc3)nc2n1 | 14
Nc1nc(N)c2cnc(N[C@H]3CCCc4ccccc43)nc2n1 | 16
CN(Cc1cccc2ccccc12)c1ncc2c(N)nc(N)nc2n1 | 3
CN(CCC=C1c2ccccc2CCc2ccccc21)c1ncc2c(N)nc(N)nc2n1 | 9
Nc1nc(N)c2cnc(N[C@H]3CCN(Cc4ccccc4)C3)nc2n1 | 13
Nc1nc(N)c2cnc(N3C4CC3N4c3ccc(Cl)cc3)nc2n1 | 12
CC1C(C)N(c2ncc3c(N)nc(N)nc3n2)C(C)C(C)N1c1ncc2c(N)nc(N)nc2n1 (stereo not shown) | 2
Nc1nc(N)c2cnc(NCCNC(=O)c3c(Cl)cccc3Cl)nc2n1 | 12
Nc1nc(N)c2cnc(CNC(=O)/C=C/c3ccccc3)nc2n1 | 92
Nc1nc(N)c2cnc(N(CCCO)Cc3ccccc3)nc2n1 | 14
Nc1nc(N)c2cnc(N3CCC(O)(c4cccc(F)c4)CC3)nc2n1 | 0.59
Nc1nc(N)c2cnc(Nc3ccc(Cl)c(C(=O)NCc4cccs4)c3)nc2n1 | 0.5
CN(Cc1cc2ccccc2s1)c1ncc2c(N)nc(N)nc2n1 | 2.9
